For orientation: CC50 means the concentration that lowers cell viability or growth by half. A high value points to better tolerance by the cells.

The values that follow come from US20130190289A1, “COMPOUNDS AND METHODS FOR THE TREATMENT OR PREVENTION OF FLAVIVIRUS INFECTIONS” (priority 2010, published 2013).

Data set [1] deals with HCV replicon (genotype 1b) in Huh7 cell line ET. The data set is described as follows: microbe, parasite or virus in culture. It counts as cell-based, HCV genotype 1b. The note with it: Hepatitis C virus, Huh-7, read-out: HCV-Replicon-(Luci-ET) 1b_IC50.
Data set [2] in a line: [3H]Thymidine incorporation assay (cell toxicity). The note with it: human. A general note: Dividing cells build labelled thymidine or BrdU into new DNA.

Some results are limits rather than exact numbers.

Consider `CCC[C@@H](C(=O)N(C)C)N(c1cc(C#CC(C)(C)C)sc1C(=O)O)C(=O)[C@H]1CC[C@H](C)CC1` [Compound 68, 5-(3,3-Dimethylbut-1-ynyl)-3-[[(1S)-1-(dimethylcarbamoyl)butyl]-(trans-4-methylcyclohexanecarbonyl)amino]thiophene-2-carboxylic acid], for which, in data set [1], the IC50 is less than 0.1 µM. The compound also showed a CC50 at 72 h in data set [2] of 10 to 100 µM.
As to `CC(C)C#Cc1cc(N(CC(=O)N2CCNCC2)C(=O)C2CCC(C)CC2)c(C(=O)O)s1` (centres unmarked) [Compound 69], the IC50 in data set [1] was less than 0.1 µM. The CC50 at 72 h in data set [2] is greater than 100 µM.
The matching figures for `CNC(=O)CN(C(=O)C1CCC(C)CC1)c1cc(C#CC(C)C)sc1C(=O)O` (centres unmarked) [Compound 70]: less than 0.1 µM and greater than 100 µM.
For `CO[C@@H](C)[C@H](C(=O)N1CCOCC1)N(c1cc(C#CC(C)(C)C)sc1C(=O)O)C(=O)[C@H]1CC[C@H](C)CC1` [Compound 72, 5-(3,3-dimethylbut-1-ynyl)-3-[[(1R,2S)-2-methoxy-1-(morpholine-4-carbonyl)propyl]-(trans-4-methylcyclohexanecarbonyl)amino]thiophene-2-carboxylic acid], the IC50 in data set [1] is less than 0.1 µM. In data set [2], the CC50 at 72 h is greater than 100 µM.
On to `CC(C)NC(=O)CN(c1cc(C#CC(C)(C)C)sc1C(=O)O)C(=O)[C@H]1CC[C@H](C)CC1` [Compound 73, 5-(3,3-dimethylbut-1-ynyl)-3-[[2-(isopropylamino)-2-oxo-ethyl]-(trans-4-methylcyclohexanecarbonyl)amino]thiophene-2-carboxylic acid], for which, in data set [1], the IC50 was less than 0.1 µM. Moreover, in data set [2], the CC50 at 72 h was greater than 100 µM.
On to `CO[C@H](C)[C@H](C(=O)N1CCOCC1)N(c1cc(C#CC(C)(C)C)sc1C(=O)O)C(=O)[C@H]1CC[C@H](C)CC1` [Compound 74, 5-(3,3-dimethylbut-1-ynyl)-3-[[(1R,2R)-2-methoxy-1-(morpholine-4-carbonyl)propyl]-(trans-4-methylcyclohexanecarbonyl)amino]thiophene-2-carboxylic acid], for which the IC50 in data set [1] is less than 0.1 µM. The 50% cytotoxic concentration (CC50) at 72 h in data set [2] is greater than 100 µM.
On the same counts, the results for `CC[C@@H](C(=O)N(C)C1CCN(C)CC1)N(c1cc(C#CC(C)(C)C)sc1C(=O)O)C(=O)[C@H]1CC[C@H](C)CC1` [Compound 76, 5-(3,3-Dimethylbut-1-ynyl)-3-[(trans-4-methylcyclohexanecarbonyl)-[(1S)-1-[methyl-(1-methyl-4-piperidyl)carbamoyl]propyl]amino]thiophene-2-carboxylic acid] are less than 0.1 µM and 10 to 100 µM.
As for `CC[C@@H](C(=O)N(C)CCO)N(c1cc(C#CC(C)(C)C)sc1C(=O)O)C(=O)[C@H]1CC[C@H](C)CC1` [Compound 77, 5-(3,3-Dimethylbut-1-ynyl)-3-[[(1S)-1-[2-hydroxyethyl(methyl)carbamoyl]propyl]-(trans-4-methylcyclohexanecarbonyl)amino]thiophene-2-carboxylic acid], the IC50 in data set [1] is less than 0.1 µM. Besides, in data set [2], the cytotoxic concentration (CC50) at 72 h was greater than 100 µM.
As for `CC[C@@H](C(=O)N(C)CC1CCOC1)N(c1cc(C#CC(C)(C)C)sc1C(=O)O)C(=O)[C@H]1CC[C@H](C)CC1` (stereo partly drawn) [Compound 80, 5-(3,3-Dimethylbut-1-ynyl)-3-[(trans-4-methylcyclohexanecarbonyl)-[(1S)-1-[methyl(tetrahydrofuran-3-ylmethyl)carbamoyl]propyl]amino]thiophene-2-carboxylic acid], in data set [1], the IC50 is less than 0.1 µM. Further, the CC50 at 72 h in data set [2] is greater than 100 µM.
Regarding `CC[C@@H](C(=O)N(C)C1CCOCC1)N(c1cc(C#CC(C)(C)C)sc1C(=O)O)C(=O)[C@H]1CC[C@H](C)CC1` [Compound 81, 5-(3,3-Dimethylbut-1-ynyl)-3-[(trans-4-methylcyclohexanecarbonyl)-[(1S)-1-[methyl(tetrahydropyran-4-yl)carbamoyl]propyl]amino]thiophene-2-carboxylic acid], the IC50 in data set [1] was less than 0.1 µM. The compound further returned a CC50 at 72 h in data set [2] of 10 to 100 µM.
